Test results reported in patent publication US11819526B2, “Lactobacillus Gasseri KBL697 strain and use thereof” (KoBioLabs, Inc., priority 2018, dated 2023).

Key:
[1] = tested on: RBL-2H3 cell line; test: Degranulation (β-hexosaminidase, co-secreted with histamine) in RBL-2H3 cells; format: cell-based; details: RBL-2H3, IgE + antigen DNP-HAS; 120 μL bacterial culture supernatant or ketotifen 20 μg/mL; negative control (Siraganian buffer) = 1.0
Excerpt: It has been reported that, in an allergic reaction, histamine is expressed in tissues, causing an inflammatory reaction, and suppressing histamine secretion leads to alleviation of allergic symptoms by blocking the reaction by histamine. In the present invention, the alleviation of allergic reactions and the therapeutic effect thereon through inhibition of histamine secretion by KBL697 were further confirmed. Further, in order to confirm whether the effect for treating and preventing chronic allergies identified in Example 1 is an inherent attribute of Lactobacillus gasseri, or is a remarkable effect particularly in KBL697 among Lactobacillus gasseri, the ability to suppress histamine secretion was evaluated also for nine additional Lactobacillus gasseri strains in addition to KBL697. […]
To identify the activity of β-hexosaminidase, 25 μL of the supernatant collected in Example 2-3 was transferred to each well of a 96-well plate, and then 25 μL of substrate (p-nitrophenyl N-acetyl-D-glucosaminidase) was added to each, and followed by a reaction at 37° C. in the 5% CO2 incubator for 90 minutes. Then, 200 μL of stop solution (Na2CO3/NaHCO3) was added to stop the reaction and then absorbance was measured at 405 nm. […]

[2] = tested on: C57BL6 mice with DSS-induced colitis; test: DSS-induced colitis in C57BL6 mice, KBL697 with or without infliximab; format: in vivo, mouse; details: administered alone
Excerpt: Infliximab (product name Remicade) is a therapeutic recombinant antibody drug used as an injection for autoimmune diseases such as rheumatoid arthritis, ankylosing spondylitis, ulcerative colitis, Crohn's disease in adults, Crohn's disease in children, psoriasis, and psoriatic arthritis. The purpose of this study was to confirm the effect of improving intestinal disease symptoms in vivo in the case of concurrent administration of KBL697 and infliximab.
After dividing C57BL6 mice into groups of eight mice, the mice were fed tap water with 2% DSS dissolved therein for 8 days (D0 to D7), inducing colitis. At the same time, 200 μL of PBS was orally administered to the mice in the control group for 14 days (D0 to D13) daily, while 200 μL of the KBL697 strain diluted in PBS to 1×10^10 CFU/mL was orally administered to the mice in the group dosed with KBL697 so that the amount of daily administration could be set at 2×10^9 CFU. […] During the 14 days in which colitis was induced by DSS, the body weight changes of the mice in the control group and each test group were measured daily, and on the 14th day after DSS was supplied (D14), mice were subjected to autopsies to measure the length of the colon.

| Compound | β-hexosaminidase (fold change) [1] | width of decrease in the colon length compared to control group (DSS+PBS) ([2]; 2% DSS 8 days, KBL697 2×10^9 CFU oral daily, infliximab 5 mg/kg, D14, FIGS. 18A, 18B) | effect on body weight decrease compared to control group ([2]; 2% DSS, when 14 days elapsed after the administration) |
| --- | --- | --- | --- |
| CN1CCC(=C2c3ccccc3CC(=O)c3sccc32)CC1 [Ketotifen, ketotifen] | 0.3861 fold change |  |  |
| infliximab: therapeutic recombinant antibody drug (product name Remicade) |  | significantly improved | significantly improved |
